Experimental findings from patent US7704995B2 (Exelixis, Inc., priority 2003, dated 2010) are described below.

The assay addresses T1, Chk1 (Homo sapiens, UniProt O14757).
T1 construct: purchased Upstate Biotechnology
T1 sequence (O14757 1-476): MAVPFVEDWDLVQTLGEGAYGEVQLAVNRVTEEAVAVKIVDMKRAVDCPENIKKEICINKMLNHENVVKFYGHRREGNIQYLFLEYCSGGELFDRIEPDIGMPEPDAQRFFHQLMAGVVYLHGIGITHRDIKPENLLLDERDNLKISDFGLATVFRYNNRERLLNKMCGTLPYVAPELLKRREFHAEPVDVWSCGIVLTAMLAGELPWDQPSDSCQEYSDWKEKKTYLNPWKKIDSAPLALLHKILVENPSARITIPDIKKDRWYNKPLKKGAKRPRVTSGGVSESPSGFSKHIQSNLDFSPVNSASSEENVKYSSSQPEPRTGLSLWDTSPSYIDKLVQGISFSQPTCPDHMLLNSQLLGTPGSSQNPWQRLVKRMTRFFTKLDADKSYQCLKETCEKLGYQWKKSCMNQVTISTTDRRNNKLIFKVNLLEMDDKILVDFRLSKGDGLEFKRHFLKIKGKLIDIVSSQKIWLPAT
Description: Chk1 kinase assay: incorporation of γ-33P ATP into immobilized myelin basic protein. Format: biochemical. The following applies: read-out: Chk1 IC50. An outline of the steps: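 Radiometric filter-free format: Chk1 10 nM, 10 μM ATP; Chk2 20 nM, 30 μM ATP; γ-33P ATP tracer; immobilized MBP substrate; Hepes pH 7.6, 10 mM MgCl2, 1 mM DTT; 1 h RT; 1% DMSO. Scintillation counting of washed plates. IC50/Ki from curve fit.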

The term IC50 denotes the concentration that gives 50% inhibition. Regarding `CNC(=O)c1nc(-c2ccc(C(=O)NCCc3ccccc3)cc2)cnc1N` [Example 151, 3-amino-N-methyl-6-(4-{[(2-phenylethyl)amino]carbonyl}phenyl)pyrazine-2-carboxamide], the IC50 fell in the range of 0.05 to 1 µM. Take `CNC(=O)c1nc(-c2ccc(C(=O)NCc3ccc(Cl)cc3Cl)cc2)cnc1N` [Example 152, 3-amino-6-[4-({[(2,4-dichlorophenyl)methyl]amino}carbonyl)phenyl]-N-methylpyrazine-2-carboxamide]: the IC50 lay within 0.05 to 1 µM. On to `CNC(=O)c1nc(-c2ccc(C(=O)NCc3ccc(C)cc3)cc2)cnc1N` [Example 153, 3-amino-N-methyl-6-[4-({[(4-methylphenyl)methyl]amino}carbonyl)phenyl]pyrazine-2-carboxamide], for which the half-inhibitory concentration (IC50) fell in the range of 0.05 to 1 µM. For `CNC(=O)c1nc(-c2ccc(C(=O)N[C@H]3CCc4ccccc43)cc2)cnc1N` [Example 154, 3-amino-6-(4-{[(1S)-2,3-dihydro-1H-inden-1-ylamino]carbonyl}phenyl)-N-methylpyrazine-2-carboxamide] the value was 0.05 to 1 µM. Turning to `CNC(=O)c1nc(-c2cccc(NC(=O)Cc3ccc(Cl)cc3)c2)cnc1N` [Example 155, 3-amino-6-(3-{[(4-chlorophenyl)acetyl]amino}phenyl)-N-methylpyrazine-2-carboxamide], the concentration for half-maximal inhibition (IC50) was in the range of 0.05 to 1 µM. For `CNC(=O)c1nc(-c2cccc(NC(=O)c3cccc(Oc4ccccc4)c3)c2)cnc1N` [Example 156, 3-amino-N-methyl-6-[3-({[3-(phenyloxy)phenyl]carbonyl}amino)phenyl]pyrazine-2-carboxamide] the value was 0.05 to 1 µM; for `CNC(=O)c1nc(-c2cccc(NC(=O)C(c3ccccc3)c3ccccc3)c2)cnc1N` [Example 157, 3-amino-6-{3-[(diphenylacetyl)amino]phenyl}-N-methylpyrazine-2-carboxamide], 0.05 to 1 µM; for `CNC(=O)c1nc(-c2cccc(NC(=O)Cc3ccccc3)c2)cnc1N` [Example 158, 3-amino-N-methyl-6-{3-[(phenylacetyl)amino]phenyl}pyrazine-2-carboxamide], 0.05 to 1 µM. The result for `CNC(=O)c1nc(-c2cccc(NC(=O)CCc3ccccc3)c2)cnc1N` [Example 159, 3-amino-N-methyl-6-{3-[(3-phenylpropanoyl)amino]phenyl}pyrazine-2-carboxamide] reads 0.05 to 1 µM; that for `CNC(=O)c1nc(-c2cccc(C(=O)N[C@@H]3CCCc4ccccc43)c2)cnc1N` [Example 160, 3-amino-N-methyl-6-(3-{[(1R)-1,2,3,4-tetrahydronaphthalen-1-ylamino]carbonyl}phenyl)pyrazine-2-carboxamide], 1 to 10 µM. The result for `CNC(=O)c1nc(-c2cccc(C(=O)N[C@H]3CCCc4ccccc43)c2)cnc1N` [Example 161, 3-amino-N-methyl-6-(3-{[(1S)-1,2,3,4-tetrahydronaphthalen-1-ylamino]carbonyl}phenyl)pyrazine-2-carboxamide] reads 0.05 to 1 µM.

As to `CNC(=O)c1nc(-c2cccc(C(=O)NCc3cc(OC)c(OC)c(OC)c3)c2)cnc1N` [Example 162, 3-amino-N-methyl-6-{3-[({[3,4,5-tris(methyloxy)phenyl]methyl}amino)carbonyl]phenyl}pyrazine-2-carboxamide], the IC50 was 0.05 to 1 µM.

Turning to `CNC(=O)c1nc(-c2cccc(C(=O)N[C@@H]3CCC[C@H]3OCc3ccccc3)c2)cnc1N` [Example 163, 3-amino-N-methyl-6-{3-[({(1R,2R)-2-[(phenylmethyl)oxy]cyclopentyl}amino)carbonyl]phenyl}pyrazine-2-carboxamide], the IC50 is 1 to 10 µM.

For `CNC(=O)c1nc(-c2cccc(C(=O)N[C@H]3CCC[C@@H]3OCc3ccccc3)c2)cnc1N` [Example 164, 3-amino-N-methyl-6-{3-[({(1S,2S)-2-[(phenylmethyl)oxy]cyclopentyl}amino)carbonyl]phenyl}pyrazine-2-carboxamide], the IC50 was 0.05 to 1 µM. As for `CNC(=O)c1nc(-c2cccc(C#N)c2)cnc1N` [Example 165, 3-amino-6-(3-cyanophenyl)-N-methylpyrazine-2-carboxamide], the IC50 was in the range of 1 to 10 µM.

As for `CNC(=O)c1nc(-c2cccc(NC(=O)C3CCCC3)c2)cnc1N` [Example 166, 3-amino-6-{3-[(cyclopentylcarbonyl)amino]phenyl}-N-methylpyrazine-2-carboxamide], the IC50 lay within 0.05 to 1 µM. As for `CNC(=O)c1nc(-c2cccc(NC(=O)c3ccc(C#N)cc3)c2)cnc1N` [Example 167, 3-amino-6-(3-{[(4-cyanophenyl)carbonyl]amino}phenyl)-N-methylpyrazine-2-carboxamide], the 50% inhibitory concentration (IC50) was 0.05 to 1 µM. For `CNC(=O)c1nc(-c2cccc(NC(=O)NCc3ccccc3)c2)cnc1N` [Example 168, 3-amino-N-methyl-6-[3-({[(phenylmethyl)amino]carbonyl}amino)phenyl]pyrazine-2-carboxamide] the value was 0.05 to 1 µM; for `CNC(=O)c1nc(-c2cccc(C(=O)NCc3ccc4ccccc4c3)c2)cnc1N` [Example 169, 3-amino-N-methyl-6-(3-{[(naphthalen-2-ylmethyl)amino]carbonyl}phenyl)pyrazine-2-carboxamide], 0.05 to 1 µM; for `CNC(=O)c1nc(-c2cccc(C(=O)NCC3CCCO3)c2)cnc1N` (stereo not shown) [Example 170, 3-amino-N-methyl-6-(3-{[(tetrahydrofuran-2-ylmethyl)amino]carbonyl}phenyl)pyrazine-2-carboxamide], 1 to 10 µM. The result for `CNC(=O)c1nc(-c2cccc(C(=O)NCc3c(F)cccc3Cl)c2)cnc1N` [Example 171, 3-amino-6-[3-({[(2-chloro-6-fluorophenyl)methyl]amino}carbonyl)phenyl]-N-methylpyrazine-2-carboxamide] reads 0.05 to 1 µM.

For the compound `CNC(=O)c1nc(-c2cccc(C(=O)NCc3cc(F)cc(C(F)(F)F)c3)c2)cnc1N` [Example 172, 3-amino-6-{3-[({[3-fluoro-5-(trifluoromethyl)phenyl]methyl}amino)carbonyl]phenyl}-N-methylpyrazine-2-carboxamide], the half-maximal inhibitory concentration (IC50) is 0.05 to 1 µM. Regarding `CNC(=O)c1nc(-c2cccc(C(=O)NCCc3cc(OC)cc(OC)c3)c2)cnc1N` [Example 173, 3-amino-6-{3-[({2-[3,5-bis(methyloxy)phenyl]ethyl}amino)carbonyl]phenyl}-N-methylpyrazine-2-carboxamide], the half-inhibitory concentration (IC50) was in the range of 1 to 10 µM. In the case of `CNC(=O)c1nc(-c2cccc(OCCc3ccccc3)c2)cnc1N` [Example 174, 3-amino-N-methyl-6-{3-[(2-phenylethyl)oxy]phenyl}pyrazine-2-carboxamide], the half-inhibitory concentration (IC50) lay in the range of 0.05 to 1 µM. For `CNC(=O)c1nc(-c2cccc(OCCN3CCC(C)CC3)c2)cnc1N` [Example 175, 3-amino-N-methyl-6-(3-{[2-(4-methylpiperidin-1-yl)ethyl]oxy}phenyl)pyrazine-2-carboxamide] the value was 1 to 10 µM; for `CNC(=O)c1nc(-c2cccc(OCCN3CCC(CCO)CC3)c2)cnc1N` [Example 176, 3-amino-6-[3-({2-[4-(2-hydroxyethyl)piperidin-1-yl]ethyl}oxy)phenyl]-N-methylpyrazine-2-carboxamide], 1 to 10 µM. For `CNC(=O)c1nc(-c2cccc(OCCN3CCC(O)C3)c2)cnc1N` (stereo not shown) [Example 177, 3-amino-6-(3-{[2-(3-hydroxypyrrolidin-1-yl)ethyl]oxy}phenyl)-N-methylpyrazine-2-carboxamide] the value was 1 to 10 µM; for `CCN(CCOc1cccc(-c2cnc(N)c(C(=O)NC)n2)c1)Cc1ccccc1` [Example 178, 3-amino-6-[3-({2-[ethyl(phenylmethyl)amino]ethyl}oxy)phenyl]-N-methylpyrazine-2-carboxamide], 0.05 to 1 µM; for `CCN(CC)CCOc1cccc(-c2cnc(N)c(C(=O)NC)n2)c1` [Example 179, 3-amino-6-(3-{[2-(diethylamino)ethyl]oxy}phenyl)-N-methylpyrazine-2-carboxamide], 0.05 to 1 µM. For `CNC(=O)c1nc(-c2cccc(C(=O)NCc3ccccc3-c3ccccc3)c2)cnc1N` [Example 180, 3-amino-6-(3-{[(biphenyl-2-ylmethyl)amino]carbonyl}phenyl)-N-methylpyrazine-2-carboxamide] the value was less than 0.05 µM; for `CNC(=O)c1nc(-c2cccc(OCCN3CCN(c4ccccc4)CC3)c2)cnc1N` [Example 181, 3-amino-N-methyl-6-(3-{[2-(4-phenylpiperazin-1-yl)ethyl]oxy}phenyl)pyrazine-2-carboxamide], 0.05 to 1 µM. Turning to `CNC(=O)c1nc(-c2cccc(C(=O)NCc3ccc(-c4ccccc4)cc3)c2)cnc1N` [Example 182, 3-amino-6-(3-{[(biphenyl-4-ylmethyl)amino]carbonyl}phenyl)-N-methylpyrazine-2-carboxamide], the IC50 was less than 0.05 µM. Regarding `CNC(=O)c1nc(-c2cccc(OCCN(C)Cc3ccccc3)c2)cnc1N` [Example 183, 3-amino-N-methyl-6-[3-({2-[methyl(phenylmethyl)amino]ethyl}oxy)phenyl]pyrazine-2-carboxamide], the IC50 was 0.05 to 1 µM. As for `CNC(=O)c1nc(-c2cccc(C(=O)NCc3ccc(Oc4ccccc4)cc3)c2)cnc1N` [Example 184, 3-amino-N-methyl-6-{3-[({[4-(phenyloxy)phenyl]methyl}amino)carbonyl]phenyl}pyrazine-2-carboxamide], the half-inhibitory concentration (IC50) fell in the range of 0.05 to 1 µM.
